Results taken from patent EP0791056B1, “LIPID-CLEAVAGE ENZYME COMPLEX” (priority 1994, dated 1996).

Tests used:
Phospholipase C = settings: cited from earlier work
LCE [1] = assay: Influence of enzyme inhibitors or activators on LCE activity, CEM-SS membrane fraction; type: biochemical; settings: LCE Membranfraktion CEM-SS
Method: (§1) Das Pipettierschema ist in der folgenden Tabelle angegeben. Tabelle
(§2) Zur Untersuchung der enzymatischen Spaltung in Abhängigkeit von der Substratkonzentration wurde eine Substratstammlösung von 0.98 nmol [^14C]-AZT-DMDOPE und 0.7 nmol AZT-DMDOPE/80 µl Aqua bidest. im LCE-Assay angesetzt. Die verschiedenen Substratkonzentrationen im LCE-Assay wurden durch kontinuierliche Verdopplung bzw. Halbierung des Volumens an Substratlösung eingestellt. Die Ansätze wurden in Glasröhrchen (5 ml) vorgelegt und durch Zugabe der Substratlösung gestartet. Die Inkubation wurde bei 37 °C im Wasserbad unter leichtem Schütteln durchgeführt.
Die Reaktionsansätze des LCE-Assays wurden nach entsprechender Inkubationszeit dem Wasserbad entnommen, und die Reaktion durch Zugabe von 750 µl 2-Propanol gestoppt. Nach gründlicher Durchmischung wurden die Ansätze anschließend mit 700 µl auf Raumtemperatur erwärmtem n-Heptan versetzt. Die Ansätze wurden erneut für 30 sec gut gemischt und zur Beschleunigung der Phasentrennung in der Minifuge T bei 3200 rpm für 15 min bei Raumtemperatur zentrifugiert. Anschließend wurden 500 µl der oberen Phase (n-Heptan) entnommen und in neue Glasröhrchen (5 ml) mit 10 mg Kieselgel 60 H und 200 µl n-Heptan überführt. Die Ansätze wurden für 30 sec gut durchmischt und zur Sedimentation des Kieselgels für 10 min unter oben genannten Bedingungen zentrifugiert. […]

LCE [2] = assay: Effect of phospholipase C/D inhibitors and activators on LCE as stated in the description; type: biochemical
LCE [3] = assay: Influence of enzyme inhibitors or activators on LCE activity, kidney membrane fraction; type: biochemical, Balb/c; settings: LCE Membranfraktion Niere (Balb/c)
Method: as §1, §2
Die Reaktionsansätze des LCE-Assays wurden nach entsprechender Inkubationszeit dem Wasserbad entnommen, und die Reaktion durch Zugabe von 750 µl 2-Propanol gestoppt. Nach gründlicher Durchmischung wurden die Ansätze anschließend mit 700 µl auf Raumtemperatur erwärmtem n-Heptan versetzt. Die Ansätze wurden erneut für 30 sec gut gemischt und zur Beschleunigung der Phasentrennung in der Minifuge T bei 3200 rpm für 15 min bei Raumtemperatur zentrifugiert. Anschließend wurden 500 µl der oberen Phase (n-Heptan) entnommen und in neue Glasröhrchen (5 ml) mit 10 mg Kieselgel 60 H und 200 µl n-Heptan überführt. Die Ansätze wurden für 30 sec gut durchmischt und zur Sedimentation des Kieselgels für 10 min unter oben genannten Bedingungen zentrifugiert. Vom Überstand wurden anschließend 500 µl entnommen und mit 3 ml Szintillationsflüssigkeit versetzt. Die Messung der Radioaktivität erfolgte für 4 min im Flüssigkeits-Szintillations-Analysator. Zur Bestimmung des Absolutwertes an Radioaktivität wurden 200 µl der Substratlösung mit 3 ml Szintillationsflüssigkeit versetzt und unter gleichen Bedingungen im Flüssigkeits-Szintillations-Analysator gemessen.

S=C(S)OC1CC2CC1C1CCCC21 (stereo not shown) [D 609, Tricyclodecan-9-yl-xanthogenat]
Einfluß auf Phospholipase C (Phospholipase C): inhibiert | Einfluß auf LCE-Aktivität (LCE [1]): Stimulation Stimulation | Einfluß auf LCE (Hemmung/Aktivierung) (LCE [2]): aktiviert | Einfluß auf LCE-Aktivität (LCE [3]): Stimulation Stimulation
